Bridge positions count the residues as written; N and C are the ends. Square brackets hold non-standard residues; d marks the D form. Peptide text beside a SMILES is read from it. * marks the point of attachment. ξ: configuration not given here. Phe(4-COOH) = N[C@@H](Cc1ccc(C(=O)O)cc1)C(=O)O; Bip = N[C@@H](Cc1ccc(-c2ccccc2)cc1)C(=O)O; NH(CH2)14COOH = O=C(O)CCCCCCCCCCCCCCN*; Phe(3-Me) = Cc1cccc(C[C@H](N)C(=O)O)c1; Val(3-OH) = CC(C)(O)[C@H](N)C(=O)O; hArg = N=C(N)NCCCC[C@H](N)C(=O)O; 4Pal = N[C@@H](Cc1ccncc1)C(=O)O; Cha = N[C@@H](CC1CCCCC1)C(=O)O; Cit = NC(=O)NCCC[C@H](N)C(=O)O; Thr(3ξ) = CC(O)[C@H](N)C(=O)O; hSer = N[C@@H](CCO)C(=O)O; Carboxymethyl = O=C(O)C*; Orn = NCCC[C@H](N)C(=O)O; Aun = NCCCCCCCCCCC(=O)O; Dab = NCC[C@H](N)C(=O)O; Dap = NC[C@H](N)C(=O)O; AEEA = NCCOCCOCC(=O)O; ξC = NC(CS)C(=O)O

IC50 data for 13 molecules are collected here from US20260022142A1, “MACROCYCLIC IMMUNOMODULATORS” (Bristol-Myers Squibb Company, priority 2022, published 2026).

T1 sequence (Q15116 25-288): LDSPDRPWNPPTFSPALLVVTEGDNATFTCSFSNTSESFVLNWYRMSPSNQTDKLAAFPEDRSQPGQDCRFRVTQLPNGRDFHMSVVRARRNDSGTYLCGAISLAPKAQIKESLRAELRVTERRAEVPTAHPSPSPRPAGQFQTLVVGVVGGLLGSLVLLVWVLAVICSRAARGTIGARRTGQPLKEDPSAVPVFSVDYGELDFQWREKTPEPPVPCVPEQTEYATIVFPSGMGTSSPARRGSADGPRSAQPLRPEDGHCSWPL

The assay has as its target T1, PD-1/PD-L1 interaction (PE-labeled human PD-L1-Ig binding to Jurkat cell line over-expressing human PD-1) (Homo sapiens, UniProt Q15116).
T1 construct: expressed in transfected cells; host or cells: Jurkat
As to the kind of experiment: Jurkat-PD-1 Cell Binding High-Content Screening Assay (CBA). It is filed as cell-based. As to conditions: Jurkat cell line over-expressing human PD-1; PE-labeled PD-L1-Ig 20 nM final; read-out: Jurkat hPD1-PDL1 IC50. The procedure, abridged:
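Binding of fluorescent PD-L1-Ig (20 nM final) to Jurkat-PD-1 cells was measured by automated imaging after 1 h, following a 2 h compound pre-treatment at 37° C.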
For orientation: IC50 means the concentration that inhibits the measured activity by half. In the case of `CC(C)C[C@H]1NC(=O)[C@H](CCCCN)NC(=O)[C@H](C(C)C)NC(=O)[C@H](Cc2ccc(-c3ccccc3)cc2)NC(=O)[C@H](C(C)C)NC(=O)[C@H](Cc2c[nH]c3ccccc23)NC(=O)[C@H](CC(=O)O)NC(=O)[C@H](Cc2ccc(OCC(=O)O)cc2)NC(=O)[C@H](CC(N)=O)NC(=O)CSC[C@@H](C(=O)NCCOCCOCC(=O)N[C@@H](CCCN)C(=O)NCCCCCCCCCCC(=O)O)NC(=O)[C@H](CO)NC(=O)[C@H](C(C)C)NC(=O)[C@H](CC2CCCCC2)NC(=O)[C@H](CCN)NC1=O` [Compound 3070] ({CH2CO}-NY(Carboxymethyl)DWV[Bip]VK[dL][Dab][Cha]VSC[AEEA][Orn][Aun]-OH; thioether N-14), the 50% inhibitory concentration (IC50) stood at 5.1 nM. Consider `Cc1cccc(C[C@@H]2NC(=O)[C@H](CC(=O)O)NC(=O)[C@H](Cc3ccc(OCC(=O)O)cc3)NC(=O)[C@H](C(C)O)NC(=O)CSC[C@@H](C(=O)N[C@@H](CCN)C(=O)NCCCCCCCCCCC(=O)O)NC(=O)[C@H](CCO)NC(=O)[C@H](C(C)C)NC(=O)[C@H](CC3CCCCC3)NC(=O)[C@H](CCN)NC(=O)[C@@H](CC(C)C)NC(=O)[C@H](CCCN)NC(=O)[C@H](Cc3ccc(OCC(=O)O)cc3)NC(=O)[C@H](Cc3ccc(-c4ccccc4)cc3)NC(=O)[C@H](Cc3ccc(C(=O)O)cc3)NC2=O)c1` (stereo partly drawn) [Compound 3483] ({CH2CO}-[Thr(3ξ)]Y(Carboxymethyl)D[Phe(3-Me)][Phe(4-COOH)][Bip]Y(Carboxymethyl)[Orn][dL][Dab][Cha]V[hSer]C[Dab][Aun]-OH; thioether N-14), for which the IC50 came out at 9.5 nM. On to `CC(C)[C@@H]1NC(=O)[C@H](CC2CCCCC2)NC(=O)[C@H](CCN)NC(=O)[C@@H](C)NC(=O)[C@H](CCN)NC(=O)[C@H](C(C)C)NC(=O)[C@H](Cc2ccc(-c3ccccc3)cc2)NC(=O)[C@H](C(C)C)NC(=O)[C@H](Cc2c[nH]c3ccccc23)NC(=O)[C@H](CC(=O)O)NC(=O)[C@H](Cc2ccc(OCC(=O)O)cc2)NC(=O)[C@H](CCCCNC(=N)N)NC(=O)CSC[C@@H](C(=O)N[C@@H](CCN)C(=O)NCCOCCOCC(=O)NCCCCCCCCCCC(=O)O)NC(=O)[C@H](CCCN)NC1=O` [Compound 3279] ({CH2CO}-[hArg]Y(Carboxymethyl)DWV[Bip]V[Dab][dA][Dab][Cha]V[Orn]C[Dab][AEEA][Aun]-OH; thioether N-14), for which the IC50 stood at 46.7 nM.

Consider `CC(C)C[C@H]1NC(=O)[C@H](CCCN)NC(=O)[C@H](C(C)C)NC(=O)[C@H](Cc2ccc(-c3ccccc3)cc2)NC(=O)[C@H](C(C)C)NC(=O)[C@H](Cc2c[nH]c3ccccc23)NC(=O)[C@H](CC(=O)O)NC(=O)[C@H](Cc2ccc(OCC(=O)O)cc2)NC(=O)[C@H](Cc2ccc(OCC(=O)O)cc2)NC(=O)CSC[C@@H](C(=O)N[C@@H](CCN)C(=O)NCCOCCOCC(=O)NCCCCCCCCCCC(=O)O)NC(=O)[C@H](CCCN)NC(=O)[C@H](C(C)C)NC(=O)[C@H](CC2CCCCC2)NC(=O)[C@H](CCN)NC1=O` [Compound 2553] ({CH2CO}-Y(Carboxymethyl)Y(Carboxymethyl)DWV[Bip]V[Orn][dL][Dab][Cha]V[Orn]C[Dab][AEEA][Aun]-OH; thioether N-14), for which the IC50 was found to be 11.3 nM. Consider `CC(C)C[C@H]1NC(=O)[C@H](CCCN)NC(=O)[C@H](Cc2c[nH]cn2)NC(=O)[C@H](Cc2ccc(-c3ccccc3)cc2)NC(=O)[C@H](C(C)C)NC(=O)[C@H](Cc2c[nH]c3ccccc23)NC(=O)[C@H](CC(=O)O)NC(=O)[C@H](Cc2ccc(OCC(=O)O)cc2)NC(=O)[C@H](Cc2ccccc2)NC(=O)CSC[C@@H](C(=O)N[C@@H](CCCN)C(=O)NCCOCCOCC(=O)NCCCCCCCCCCC(=O)O)NC(=O)[C@H](CO)NC(=O)[C@H](C(C)C)NC(=O)[C@H](CC2CCCCC2)NC(=O)[C@H](CCN)NC1=O` [Compound 3057] ({CH2CO}-FY(Carboxymethyl)DWV[Bip]H[Orn][dL][Dab][Cha]VSC[Orn][AEEA][Aun]-OH; thioether N-14), for which the IC50 turned out to be 53.9 nM. In the case of `Cc1cccc(C[C@@H]2NC(=O)[C@H](CC(=O)O)NC(=O)[C@H](Cc3ccc(OCC(=O)O)cc3)NC(=O)[C@H](CCCNC(=N)N)NC(=O)CSC[C@@H](C(=O)N[C@@H](CCN)C(=O)NCCCCCCCCCCC(=O)O)NC(=O)[C@H]([C@@H](C)O)NC(=O)[C@H](C(C)C)NC(=O)[C@H](CC3CCCCC3)NC(=O)[C@H](CCN)NC(=O)[C@@H](CC(C)C)NC(=O)[C@H](CCCN)NC(=O)[C@H](Cc3ccc(O)cc3)NC(=O)[C@H](Cc3ccc(-c4ccccc4)cc3)NC(=O)[C@H](Cc3ccc(OCC(=O)O)cc3)NC2=O)c1` [Compound 2130] ({CH2CO}-RY(Carboxymethyl)D[Phe(3-Me)]Y(Carboxymethyl)[Bip]Y[Orn][dL][Dab][Cha]VTC[Dab][Aun]-OH; thioether N-14), the IC50 was 15.7 nM.

In the case of `COc1ccc(C[C@@H]2NC(=O)[C@H](Cc3cccc(C)c3)NC(=O)[C@H](CC(=O)O)NC(=O)[C@H](Cc3ccc(C(=O)O)cc3)NC(=O)[C@H](Cc3ccncc3)NC(=O)CSC[C@@H](C(=O)N[C@@H](CCN)C(=O)NCCOCCOCC(=O)NCCOCCOCC(=O)NCCCCCCCCCCCCCCC(=O)O)NC(=O)[C@H](CO)NC(=O)[C@H](C(C)(C)O)NC(=O)[C@H](CC3CCCCC3)NC(=O)[C@H](CCN)NC(=O)[C@@H](CC(C)C)NC(=O)[C@H](CCCN)NC(=O)[C@H](Cc3ccc(C(=O)O)cc3)NC(=O)[C@H](Cc3ccc(-c4ccccc4)cc3)NC2=O)cc1` [Compound 2885] ({CH2CO}-[4Pal][Phe(4-COOH)]D[Phe(3-Me)]Y(Me)[Bip][Phe(4-COOH)][Orn][dL][Dab][Cha][Val(3-OH)]SC[Dab][AEEA][AEEA]-{NH(CH2)14COOH}; thioether N-14), the IC50 stood at 2690 nM. In the case of `CC(C)C[C@H]1NC(=O)[C@H](CCCN)NC(=O)[C@H](Cc2ccc(O)cc2)NC(=O)[C@H](Cc2ccc(-c3ccccc3)cc2)NC(=O)[C@H](Cc2ccc(O)cc2)NC(=O)[C@H](Cc2c[nH]c3ccccc23)NC(=O)[C@H](CC(=O)O)NC(=O)[C@H](Cc2ccc(OCC(=O)O)cc2)NC(=O)[C@H]([C@@H](C)O)NC(=O)CSC[C@@H](C(=O)N[C@@H](CCN)C(=O)NCCCCCCCCCCC(=O)O)NC(=O)[C@H](CCCNC(N)=O)NC(=O)[C@H](C(C)C)NC(=O)[C@H](CC2CCCCC2)NC(=O)[C@H](CCN)NC1=O` [Compound 2730] ({CH2CO}-TY(Carboxymethyl)DWY[Bip]Y[Orn][dL][Dab][Cha]V[Cit]C[Dab][Aun]-OH; thioether N-14), the IC50 amounted to 15.5 nM.

For `CC(C)C[C@H]1NC(=O)[C@H](CCCN)NC(=O)[C@H](CCCNC(N)=O)NC(=O)[C@H](Cc2ccc(-c3ccccc3)cc2)NC(=O)[C@H](Cc2ccc(O)cc2)NC(=O)[C@H](Cc2c[nH]c3ccccc23)NC(=O)[C@H](CC(=O)O)NC(=O)[C@H](Cc2ccc(OCC(=O)O)cc2)NC(=O)[C@H](CCCNC(=N)N)NC(=O)CSC[C@@H](C(=O)N[C@@H](CCN)C(=O)NCCCCCCCCCCC(=O)O)NC(=O)[C@H]([C@@H](C)O)NC(=O)[C@H](C(C)C)NC(=O)[C@H](CC2CCCCC2)NC(=O)[C@H](CCN)NC1=O` [Compound 2834] ({CH2CO}-RY(Carboxymethyl)DWY[Bip][Cit][Orn][dL][Dab][Cha]VTC[Dab][Aun]-OH; thioether N-14), the IC50 is 20.2 nM. For the molecule `Cc1cccc(C[C@@H]2NC(=O)[C@H](CC(=O)O)NC(=O)[C@H](Cc3ccc(OCC(=O)O)cc3)NC(=O)[C@H](CN)NC(=O)CSC[C@@H](C(=O)N[C@@H](CCN)C(=O)NCCOCCOCC(=O)NCCCCCCCCCCC(=O)O)NC(=O)[C@H](CCCN)NC(=O)[C@H](Cc3ccc(O)cc3)NC(=O)[C@H](CC3CCCCC3)NC(=O)[C@H](CCN)NC(=O)[C@@H](CC(C)C)NC(=O)[C@H](CCCN)NC(=O)[C@H](Cc3ccc(O)cc3)NC(=O)[C@H](Cc3ccc(-c4ccccc4)cc3)NC(=O)[C@H](C(C)C)NC2=O)c1` [Compound 2578] ({CH2CO}-[Dap]Y(Carboxymethyl)D[Phe(3-Me)]V[Bip]Y[Orn][dL][Dab][Cha]Y[Orn]C[Dab][AEEA][Aun]-OH; thioether N-14), the IC50 is 10.7 nM.

As for `CC(C)C[C@H]1NC(=O)[C@H](CCCN)NC(=O)[C@H](C(C)C)NC(=O)[C@H](Cc2ccc(-c3ccccc3)cc2)NC(=O)[C@H](C(C)C)NC(=O)[C@H](Cc2c[nH]c3ccccc23)NC(=O)[C@H](CC(=O)O)NC(=O)[C@H](Cc2ccc(OCC(=O)O)cc2)NC(=O)[C@H](Cc2ccc(OCC(=O)O)cc2)NC(=O)CSC[C@@H](C(=O)N[C@@H](CCCCN)C(=O)NCCCCCCCCCCC(=O)O)NC(=O)[C@H](CCCNC(=N)N)NC(=O)[C@H](C(C)C)NC(=O)[C@H](CC2CCCCC2)NC(=O)[C@H](CCN)NC1=O` [Compound 2532] ({CH2CO}-Y(Carboxymethyl)Y(Carboxymethyl)DWV[Bip]V[Orn][dL][Dab][Cha]VRCK[Aun]-OH; thioether N-14), the IC50 stood at 34.6 nM.

For the molecule `CC[C@H](C)[C@@H]1NC(=O)[C@H](Cc2ccc(-c3ccccc3)cc2)NC(=O)[C@H](C(C)C)NC(=O)[C@H](Cc2cccc(C)c2)NC(=O)[C@H](CC(=O)O)NC(=O)[C@H](Cc2ccc(OCC(=O)O)cc2)NC(=O)[C@H](CN)NC(=O)CSCC(C(=O)NCCOCCOCC(=O)NCCCCCCCCCCC(=O)O)NC(=O)[C@H](CN)NC(=O)[C@H](C(C)C)NC(=O)[C@H](CC2CCCCC2)NC(=O)[C@H](CCN)NC(=O)[C@@H](CC(C)C)NC(=O)[C@H](CCCN)NC1=O` (stereo partly drawn) [Compound 2646] ({CH2CO}-[Dap]Y(Carboxymethyl)D[Phe(3-Me)]V[Bip]I[Orn][dL][Dab][Cha]V[Dap][ξC][AEEA][Aun]-OH; thioether N-14), the IC50 came to 13.2 nM. As to `Cc1cccc(C[C@@H]2NC(=O)[C@H](CC(=O)O)NC(=O)[C@H](Cc3ccc(OCC(=O)O)cc3)NC(=O)[C@H](CN)NC(=O)CSC[C@@H](C(=O)N[C@@H](CCCN)C(=O)NCCCCCCCCCCCCCCC(=O)O)NC(=O)[C@H](C(C)O)NC(=O)[C@H](C(C)C)NC(=O)[C@H](CC3CCCCC3)NC(=O)[C@H](CCN)NC(=O)[C@@H](CC(C)C)NC(=O)[C@H](CCCN)NC(=O)[C@H](CCCNC(N)=O)NC(=O)[C@H](Cc3ccc(-c4ccccc4)cc3)NC(=O)[C@H](C(C)C)NC2=O)c1` (stereo partly drawn) [Compound 3124] ({CH2CO}-[Dap]Y(Carboxymethyl)D[Phe(3-Me)]V[Bip][Cit][Orn][dL][Dab][Cha]V[Thr(3ξ)]C[Orn]-{NH(CH2)14COOH}; thioether N-14), the 50% inhibitory concentration (IC50) is 281 nM.
